Test results from patent US8962627B2, “Oxime derivatives and their use as allosteric modulators of metabotropic glutamate receptors” (Prestwick Chemical, Inc., priority 2009, dated 2015).

Key:
[1] = target: T1, human mGluR4 transiently over-expressed in HEK-293 cells (Homo sapiens, UniProt Q14833); test: Human mGluR4 positive allosteric modulator evaluation using Ca++ functional assay; format: cell-based; conditions: for EC50: HEK-293 cells co-transfected with hmGluR4 and chimeric G protein, EC10 glutamate, intracellular calcium (Fluo4AM), read-out: mean EC50 of agonist/positive allosteric modulator activity on mGluR4; for PAM activity on mGluR4: up to 100 μM
T1 construct: expressed in transfected cells; host or cells: HEK-293 cells, transient co-transfection by electroporation
T1 sequence (Q14833 33-912): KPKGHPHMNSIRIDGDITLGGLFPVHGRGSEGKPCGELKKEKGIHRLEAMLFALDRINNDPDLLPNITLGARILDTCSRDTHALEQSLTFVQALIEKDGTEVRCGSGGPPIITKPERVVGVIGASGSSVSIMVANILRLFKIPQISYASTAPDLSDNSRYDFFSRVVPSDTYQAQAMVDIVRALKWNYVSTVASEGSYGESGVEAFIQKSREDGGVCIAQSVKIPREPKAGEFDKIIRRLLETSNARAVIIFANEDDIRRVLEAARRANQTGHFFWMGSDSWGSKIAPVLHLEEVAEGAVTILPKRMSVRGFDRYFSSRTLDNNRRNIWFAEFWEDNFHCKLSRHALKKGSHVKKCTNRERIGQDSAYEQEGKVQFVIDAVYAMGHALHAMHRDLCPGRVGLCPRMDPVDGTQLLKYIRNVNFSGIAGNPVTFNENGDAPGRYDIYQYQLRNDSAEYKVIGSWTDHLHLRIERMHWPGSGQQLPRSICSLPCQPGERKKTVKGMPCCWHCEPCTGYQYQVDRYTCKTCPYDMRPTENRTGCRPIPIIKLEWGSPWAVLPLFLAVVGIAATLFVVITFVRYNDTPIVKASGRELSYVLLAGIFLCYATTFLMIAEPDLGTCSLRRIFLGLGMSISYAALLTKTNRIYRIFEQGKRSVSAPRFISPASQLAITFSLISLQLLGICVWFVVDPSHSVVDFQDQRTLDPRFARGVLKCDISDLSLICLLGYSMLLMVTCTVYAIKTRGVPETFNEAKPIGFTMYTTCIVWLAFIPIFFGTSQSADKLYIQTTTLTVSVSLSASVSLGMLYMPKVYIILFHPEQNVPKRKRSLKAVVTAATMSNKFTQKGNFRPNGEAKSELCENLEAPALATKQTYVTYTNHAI
How it was run: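 HEK-293 cells transiently co-transfected with hmGluR4 and a chimeric G protein, loaded with Fluo4AM; Ca2+ fluorescence read 485/525 nm. Compound alone read 60 s, then EC10 glutamate added and read 60 s more. EC50 fitted from 6–9 concentrations, duplicate, two independent runs.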

[2] = tested on: mice; test: Marble burying test in the mouse; format: in vivo; conditions: p<0.001
Text: In-Vivo Evaluation in the Marble Burying Test in the Mouse
The method, which detects anxiolytic/tranquilizing activity, follows that described by Broekkamp at al. (Eur. J. Pharmacol., 126, 223-229, 1986). Mice exposed to novel object (marbles) will bury them in the sawdust floor covering. Anxiolytics decrease the number of marbles buried at non-sedative doses.
Mice were individually placed in transparent plastic cages (33×21×18 cm) with 5 cm of sawdust on the floor and 25 marbles grouped in the centre of the cage. The cage was covered with an inverted plastic cage. Each test cage, together with the marbles, was impregnated with mouse odor before-hand by leaving 10 mice in the cage for 15 minutes. These mice then played no further role in the experiment. The number of marbles covered by sawdust (⅔ or more) was counted at the end of a 30 minute test. 12 mice were studied per group. The test was performed blind (apart from positive control). The compound of Example 85 was evaluated at 2 doses (100 and 300 mg/kg), administered p.o. 30 minutes before the test, and compared with vehicle control groups. Clobazam (8 mg/kg i.p.), administered 30 minutes before the test, was used as reference substance and was compared with the vehicle control group. Data were analyzed by comparing treated groups with control group using unpaired Student's t tests.

[3] = tested on: mice; test: Haloperidol-induced catalepsy model (bar test) in the mouse; format: in vivo; conditions: 30 mg/kg i.p. consecutively with haloperidol 1 mg/kg i.p.; compared with vehicle; FIG. 1
Description: In-Vivo Evaluation in the Haldoperidol-Induced Catalepsy Model in the Mouse
This method, which detects anti-Parkinsonian activity, follows that described by Pires et al. (J Med and Biol Res 38 1867-1872, 2005; Shiozaki et al., Psychopharmacology 147, 90-95, 1999)
Catalepsy was assessed using the bar test in mice submitted to acute intra-peritoneal administration of Haloperidol 1 mg/kg. Mice (male Rj: NMRI mice, weighing 25-30 g at the beginning of the experiment) placed in group of 5 in Plexiglas cages, were injected with Haloperidol (1 mg/kg i.p.). […] The catalepsy response of one mouse was measured as the time the animal maintained an imposed posture with both forelimbs placed on a horizontal 0.9 cm diameter wire bar suspended 4 cm above a platform. The end point of catalepsy was considered to occur when both forelimbs were removed from the bar, the mouse climbed onto the bar or if the animal moved its head in an exploratory manner. A cut-off time of 180 seconds was applied. The degree of catalepsy was scored 45 min after Haloperidol administration and continued at 45 minutes intervals for a total of 270 minutes. Between determinations, the animals were returned to their home cages. The compound of Example 63, administered i.p. consecutively with haloperidol, was evaluated at 30 mg/kg and compared with a vehicle control group. […]

With `Cl.ON=c1cc(-c2cc3cccn3cn2)oc2ccc(OCCN3CCOCC3)cc12` [Example 85, 6-(3-Morpholin-4-yl-ethoxy)-2-pyrrolo[1,2-c]pyrimidin-3-yl-chromen-4-one oxime hydrochloride] the EC50 [1] was < 1000 nM, the “decrease of the number of marbles covered by sawdust, as compared with vehicle controls” value ([2]; 100 mg/kg p.o. 30 minutes before the test) was −70% and the “decrease of the number of marbles covered by sawdust, as compared with vehicle controls” value ([2]; 300 mg/kg p.o. 30 minutes before the test) was −83%.
For `COc1cccc2oc(-c3cc4cccn4cn3)cc(=NO)c12` [Example 139, 5-Methoxy-2-pyrrolo[1,2-c]pyrimidin-3-yl-chromen-4-one oxime], the melting point was 240 to 243 °C and the EC50 [1] was < 1000 nM.
In the case of `COc1cccc(C#Cc2ccc3c(=NO)cc(-c4cc5ccccc5cn4)oc3c2)c1` (mixture of isomers) [Example 28, 2-isoquinolin-3-yl-7-(3-methoxyphenyl)ethynyl-chromen-4-one oxime], the melting point is reported as 248 to 251 °C and the EC50 [1] is reported as < 1000 nM.
With `Cn1ccc2cc(-c3cc(=NO)c4ccccc4o3)ncc21` [Example 77, 2-(1-Methyl-1H-pyrrolo[2,3-c]pyridin-5-yl)-chromen-4-one oxime] the melting point was 270 to 275 °C (dec.) and the EC50 [1] was < 5000 nM.
With `COCCOc1cccc(C#Cc2ccc3c(=NO)cc(-c4cc5ccccc5cn4)oc3c2)c1` (mixture of isomers) [Example 53, 2-Isoquinolin-3-yl-7-[3-(2-methoxy-ethoxy)-phenylethynyl]-chromen-4-one oxime] the melting point was 155 to 160 °C and the EC50 [1] was < 1000 nM.
For `COCCN(CCOC)CCOc1ccc2oc(-c3cc4cccn4cn3)cc(=NO)c2c1.Cl` [Example 104, 6-(2-[bis-(2-methoxy-ethyl)-amino]-ethoxy)-2-pyrrolo[1,2-c]pyrimidin-3-yl-chromen-4-one oxime, hydrochloride], the melting point was 155 to 160 °C and the EC50 [1] was < 1000 nM.
With `Cl.ON=c1cc(-c2cc3ccsc3cn2)oc2ccc(OCCN3CCOCC3)cc12` [Example 158, 6-(2-Morpholin-4-yl-ethoxy)-2-thieno[2,3-c]pyridin-5-yl-chromen-4-one oxime, hydrochloride] the melting point was 258 to 260 °C and the EC50 [1] was < 1000 nM.
In the case of `ON=c1cc(-c2cc3cccn3cn2)oc2ccc(OCCCOc3cccnc3)cc12` [Example 149, 6-[3-(Pyridin-3-yloxy)-propoxy]-2-pyrrolo[1,2-c]pyrimidin-3-yl-chromen-4-one oxime], the melting point is reported as 202 to 205 °C and the EC50 [1] is reported as < 1000 nM.
With `OCCC#Cc1ccc2c(=NO)cc(-c3cc4ccccc4cn3)oc2c1` (mixture of isomers) [Example 52, 7-(4-Hydroxy-but-1-ynyl)-2-isoquinolin-3-yl-chromen-4-one oxime] the melting point was 238 to 240 °C and the EC50 [1] was < 5000 nM.
With `Cl.ON=c1cc(-c2cc3cccn3cn2)oc2ccc(OCCc3ccncc3)cc12` [Example 136, 6-(2-Pyridin-4-yl-ethoxy)-2-pyrrolo[1,2-c]pyrimidin-3-yl-chromen-4-one oxime, hydrochloride] the melting point was > 270 °C (dec.) and the EC50 [1] was < 5000 nM.
With `ON=c1cc(-c2ccncn2)oc2ccccc12` [Example 80, 2-Pyrimidin-4-yl-chromen-4-one oxime] the melting point was 208 to 211 °C and the “PAM activity on mGluR4” value [1] was “no PAM activity”.
For `ON=c1cc(-c2cc3cccn3cn2)oc2ccc(OCCc3cccc(F)c3)cc12` [Example 138, 6-[2-(3-Fluoro-phenyl)-ethoxy]-2-pyrrolo[1,2-c]pyrimidin-3-yl-chromen-4-one, oxime], the melting point was 205 to 207 °C and the EC50 [1] was < 1000 nM.
In the case of `ON=c1cc(-c2ccc3ccccc3n2)oc2ccccc12` [Example 79, 2-Quinolin-2-yl-chromen-4-one oxime], the melting point is reported as 232 to 235 °C and the “PAM activity on mGluR4” value [1] is reported as “no PAM activity”.
For `Cl.ON=c1cc(-c2cc3cccn3cn2)oc2ccc(CCCCN3CCOCC3)cc12` [Example 102, 6-(4-morpholin-4-yl-butyl)-2-pyrrolo[1,2-c]pyrimidin-3-yl-chromen-4-one oxime, hydrochloride], the melting point was 180 to 185 °C and the EC50 [1] was < 1000 nM.
For `ON=c1cc(-c2cc3ccccc3cn2)oc2ccc(O)cc12` (mixture of isomers) [Example 41, 6-hydroxy-2-isoquinolin-3-yl-chromen-4-one oxime], the melting point was 255 to 260 °C and the EC50 [1] was < 5000 nM.
With `Cc1ccc2oc(-c3cc4ccccc4cn3)cc(=NO)c2c1` (mixture of isomers) [Example 5, 2-isoquinolin-3-yl-6-methyl-chromen-4-one oxime] the melting point was 260 to 264 °C and the EC50 [1] was < 1000 nM.
For `ON=c1cc(-c2cc3sccc3cn2)oc2ccccc12` [Example 70, 2-Thieno[3,2-c]pyridin-6-yl-chromen-4-one oxime], the melting point was 272 to 275 °C and the EC50 [1] was < 1000 nM.
In the case of `COCCOc1ccc2c(=NO)cc(-c3cc4ccccc4cn3)oc2c1` (mixture of isomers) [Example 57, 2-isoquinolin-3-yl-7-(2-methoxy-ethoxy)-chromes-4-one oxime], the melting point is reported as 223 to 225 °C and the EC50 [1] is reported as < 5000 nM.
In the case of `COc1ccc2oc(-c3cc4ccccc4cn3)cc(=NO)c2c1` (mixture of isomers) [Example 42, 2-isoquinolin-3-yl-6-methoxy-chromen-4-one oxime], the melting point is reported as 250 to 255 °C and the EC50 [1] is reported as < 5000 nM.
In the case of `ON=c1cc(-c2cc3ccccc3cn2)oc2ccc(Br)cc12` (mixture of isomers) [Example 4, 6-bromo-2-isoquinolin-3-yl-chromen-4-one oxime], the melting point is reported as 266 to 269 °C and the EC50 [1] is reported as < 1000 nM.
In the case of `COc1ccc2c(=NO)cc(-c3cc4ccccc4cn3)oc2c1` (mixture of isomers) [Example 56, 2-isoquinolin-3-yl-7-methoxy-chromen-4-one oxime], the melting point is reported as 246 to 248 °C and the EC50 [1] is reported as < 5000 nM.
In the case of `ON=c1cc(-c2cc3cccn3cn2)oc2ccccc12` [Example 63, 2-Pyrrolo[1,2-c]pyrimidin-3-yl-chromen-4-one oxime], the “anticataleptic activity (mean time of latency spent on the bar)” value [3] is reported as “significant anticataleptic activity” and the EC50 [1] is reported as < 1000 nM.
In the case of `C=Cc1ccc2oc(-c3cc4ccccc4cn3)cc(=NO)c2c1` [Example 36, 2-isoquinolin-3-yl-6-(vinyl)-chromen-4-one oxime], the melting point is reported as 198 to 200 °C and the EC50 [1] is reported as < 5000 nM.
In the case of `Cl.ON=c1cc(-c2cc3sccc3cn2)oc2ccc(OCCn3ccnc3)cc12` [Example 129, 6-(2-imidazol-1-yl-ethoxy)2-thieno[3,2-c]pyridin-6-yl-chromen-4-one oxime, hydrochloride], the melting point is reported as 218 to 220 °C and the EC50 [1] is reported as < 1000 nM.
